# Where a chain is given by its changes, count along the chain named. In names and notes the source's numbering stands. Where two headings read alike, the source gives them in different places.
# T1: MscL (Escherichia coli, UniProt P0A742)
# T1 sequence (P0A742 whole entry, looked up): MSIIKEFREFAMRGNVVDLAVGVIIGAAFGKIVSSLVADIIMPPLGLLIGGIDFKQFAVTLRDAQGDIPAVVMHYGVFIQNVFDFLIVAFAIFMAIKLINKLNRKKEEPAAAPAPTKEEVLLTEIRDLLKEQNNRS
# B1: G22C E. coli (protein, UniProt P0A742 1-136, looked up, variant G22C)
# Large-conductance …: T1 sequence (P0A742 whole entry, looked up) with G22C
# Assays:
# [1] = molecular target: T2, MscL (Escherichia coli, UniProt P0A742); assay: Release from heparin sulfate loaded liposomes with an applied electric field; conditions: liposome with calcein, negative potential
# T2 construct: made in house; host or cells: E. coli PB104
# Experimental: In vitro release profiles of a model drug were determined. Liposomes, as in Example 1, with and without MscL-6His, were prepared in the presence of the dye, calcein and heparin sulfate, a natural polymer found in secretory granules. A liposome was inserted into the tip of a glass pipette with the application of suction. The pipette voltage relative to the bath was controlled by a current-to-voltage converter. The solution in both the bath and the pipette was buffered to 6.5 with histamine dichloride and phosphoric acid. An Axopatch 200B was used to apply voltages and to sample the currents at 2.5 ms intervals. Swelling was induced by the application of a negative potential. To measure the swelling, the isolated liposomes were imaged and analyzed as described (J. M. Fernandez, et al., 1991, Biophys. J. 59:1022-1027, and J. R. Monck, et al., 1991; Biophys. J. 59:39-47).
# [2] = In vivo delivery of luciferase DNA complexed with Sunfish amphiphiles; parameters: species or system mouse; conditions: 24 hours; efficiency order SF-46>SF-36>SF-6>SF-30>SF-63
# Experimental: Sunfish (SF) amphiphiles were tested and compared to DOTAP, a commercially available amphiphile (Avanti Polar Lipids). The used plasmid DNA codes for Luciferase, which is expressed upon transfection. Luciferase activity represents the efficiency of transfection. Liposomes were prepared by drying the Sunfish amphiphiles or DOTAP in glass tubes under a nitrogen flow followed by being under vacuum for one hour. The lipid film was resuspended in 20% sucrose by mixing and warming up for five minutes to 60° C. in a water bath. The liposomal suspension was then sonicated for three minutes. For lipoplexes formation, plasmid DNA (30 μg/mouse) diluted in 20% sucrose was added to the liposomes (450 nmol/mouse) under mixing. The lipoplexes were allowed to rest at room temperature for […] and were intravenously injected (150 μl) in male BALB/c mice. Organs (lungs, heart, liver, spleen and kidneys) were collected 24 hours after injection for analysis. Luciferase activity was measured in homogenates of the different organs and related to a standard curve obtained with purified recombinant Luciferase.
# [3] = tested on: neurospheres (neural stem cells); assay: Ex vivo transfection of neurospheres with pEGFP-N1 lipoplexes; type: cell-based, mice; conditions: 4 hours incubation, read after two days
# Experimental: Neural stem cells were isolated from the forebrain of mice embryos and cultured in the presence of epidermal growth factor (EGF) and fibroblast growth factor (FGF). In the presence of these growth factors, neural stem cells form neurospheres, clusters of cells that grow in suspension.
# Prior to transfection of neurospheres, the spheres were immobilized on Labtek culture plates that were coated with poly-ornithine. Subsequently, neurospheres were incubated for 4 hours with SF-6/DOPE (1:1 molar ratio), SF-63, SF-80/DOPE (1:1 molar ratio), or Lipofectamine 2000 lipoplexes, containing plasmid DNA encoding Enhanced Green Fluorescent Protein (pEGFP-N1). After two days, the transfection efficiency was determined with fluorescence microscopy.
# [4] = tested on: pB104 strain (MscL null E. coli); assay: Growth assay of MscL mutants on agar plates with or without IPTG; type: cell-based; parameters: key: ++++: growth equal to cells expressing wild-type MscL; growth is indicated by ++++ to −; growth is indicated by ++++ to −; growth is indicated by ++++ to −; −: an absence of growth; conditions: pB104 with Lac-inducible plasmid
# Experimental: The constructs of the MscL-6His mutants were constructed using standard molecular biology techniques. The mutants were tested in the pB104 strain (MscL null E. coli) by a growth assay on agar plates with or without IPTG (K. Yoshimura et al., 1999, Biophys. J. 77:1960-1972).
# The first phenotype (++) grows like the single G22S mutant.
# [5] = tested on: MscL; conditions: spheroplasts
# Experimental: Patch-clamp experiments on spheroplast allow quantitation of the tension sensitivity because of the presence of an internal control, which is the mechanosensitive channel of small conductance (MscS). […] For most clinical applications, it is important that the channel remains closed at pH values of 7.4.
# Giant spheroplasts were prepared as described before and electrophysiological measurements were done by using symmetrical buffers, both in the bath and in the pipette. The gating threshold of MscL (or its mutant) is given as the ratio of the suction required to open MscL to that at which MscS opens.
# Giant spheroplasts were prepared as described in P. Blount, et al., 1999, Methods Enzymol. 294:458-482.
# [6] = tested on: pB104 strain (MscL null E. coli); assay: MTSET shock assay on agar plates with IPTG; type: cell-based; parameters: Growth −MTSET-shock: key to the marks not given beside the values
# Experimental: The constructs of the G20C^Ll, V21C^Ll and G22C^Ec MscL-6His mutants were constructed using standard molecular biology techniques. The mutants were tested in pB104 strain (MscL null E. coli) by a MTSET shock assay on agar plates with IPTG (A. F. Batiza, et al., 2002, PNAS, 99:5643-5648).
# [7] = molecular target: T1, MscL; type: biochemical, E. coli
# Experimental: (§1) Results Overexpression and Purification of the MscL Channel Protein
# (§2) Samples were prepared and calcein efflux was monitored as described elsewhere in Example 1.
# (§3) 300 μl of detergent-treated liposomes were gently mixed with 240 μl of 0.25 mg/ml purified MscL-mutant G22C in elution buffer containing 0.2% Triton X-100. The mixture was incubated at 60° C. for 45 minutes, followed by the addition of an equal volume (540 μl) of calcein-loading buffer, containing 200 mM calcein, 25 mM Tris, 1 mM EDTA, pH 8.0. After addition of 20 mg of Triton X-100-absorbing Bio-Beads SM-2, the mixture was gently agitated for one hour at room temperature. Subsequently, 80 mg Bio-Beads were added and incubated at 4° C. overnight under mild agitation. Samples were prepared for calcein efflux assay as described elsewhere.
# [8] = tested on: MscL; conditions: pH 6; Yoshimura et al. 1999; cited from earlier work
# [9] = molecular target: MscL-mutant G22C (Escherichia coli, UniProt P0A742, G22C); conditions: DOPC:DOPS (9:1) liposomes, 1 mM MTSET
# Experimental: DOPC:DOPS (9:1 mol/mol) liposomes containing the G22C MscL were prepared as described previously. […] The labeled insulin was encapsulated by three freeze-thaw cycles, followed by extrusion through a 400 nm polycarbonate membrane.
# Samples were taken at different time points and triton was added as a control for maximum fluorescence (100%). Samples were filtered over a 450 nm Cellulose Nitrate filter (Schleicher & Schuell BA85). The filtrate of 2 ml was retained and the fluorescence of 200 μl of each filtrate was monitored in a f1600 platereader (Bio-Tek). All experiments were performed in triplo.
# [10] = molecular target: MscL (Escherichia coli, UniProt P0A742, G22C); type: biochemical, E. coli; parameters: made in house; host or cells: E. coli PB104; conditions: DOPC:DOPS (90:10) liposomes, 1 mM MTSET
# Experimental: as §1, §2, §3
# MscL (Escherichia coli, UniProt P0A742, G22C), sequence (P0A742 whole entry G22C): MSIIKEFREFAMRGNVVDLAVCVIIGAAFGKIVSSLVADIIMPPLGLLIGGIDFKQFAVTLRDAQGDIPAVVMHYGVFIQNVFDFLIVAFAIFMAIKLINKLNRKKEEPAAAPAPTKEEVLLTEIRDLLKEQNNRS
# MscL-mutant G22C, sequence (P0A742 2-136 G22C): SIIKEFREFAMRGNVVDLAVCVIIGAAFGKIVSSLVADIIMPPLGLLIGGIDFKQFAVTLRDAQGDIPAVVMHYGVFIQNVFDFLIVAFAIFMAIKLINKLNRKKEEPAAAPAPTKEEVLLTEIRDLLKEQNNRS
molecule,measurement,setting,value
heparin sulfate,swelling on applied voltage,[1],swelled instantaneously and predictably with the application of a negative voltage
"CCCCCCCC/C=C\CCCCCCCCCc1ccc[n+](CCCCCCCC/C=C\CCCCCCCC)c1.[Cl-] [SF-63, 1-(9′-cis-octadecenyl)-3-(10″-cis-nonadecenyl)pyridinium Chloride]",gene expression (Luciferase) after intravenous injection of complexed DNA,[2],resulted in gene expression in the lungs
same,"transfection efficiency (GFP, fluorescence microscopy)",[3],constant
WT: wild-type E. coli MscL (6His construct),Growth on agar plates +IPTG,[4]; with IPTG,++++
same,Growth on agar plates −IPTG,[4]; without IPTG,++++
same,Gating threshold (ratio of activation pressure to that of MscS),[5]; pH 5.85,1.53 ± 0.185
same,Gating threshold (ratio of activation pressure to that of MscS),[5]; pH 7.5,1.56 ± 0.139
same,Growth after +MTSET-shock,[6],++++
same,Growth −MTSET-shock,[6],++++
same,calcein efflux upon osmotic downshock,[7],greater efflux of calcein than liposomes without MscL
same,Gating threshold (ratio of activation pressure to that of MscS),[8],1.64 ± 0.08
B1,Growth after +MTSET-shock,[6],−
same,Growth −MTSET-shock,[6],++++
same,FITC insulin efflux,[9],release of FITC insulin through MscL-mutant G22C upon activation with 1 mM MTSET
same,encapsulated calcein released,[10],80%
same,time in which half of the MscL-mediated efflux occurs,[10],seven

# Reference: patent publication US20050272677A1, “Delivery of a substance to a pre-determined site” (priority 2002, published 2005)
